No end group written: not given here.
Target: HCMV protease (also known as assemblin) encoded by UL80 (Human cytomegalovirus, UniProt P16753)
Experiment: Assemblin fluorescence polarization assay: hydrolysis of biotin/DTAF peptide substrate, quenched with avidin
Format: biochemical, human cytomegalovirus strain AD169
Settings: for Polarization: protease 100 nM, substrate 5 μM final, room temperature, avidin added
Method: The construction also encoded six additional histidine residues at the amino terminus of the protease. These additional histidine residues provided an affinity ligand by which it was purified using nickel-nitriloacetic acid-agarose (Qiagen).
The assay was performed in a buffer consisting 10 mM Phosphate buffer, pH 7.4, 20% glycerol, 150 mM sodium acetate, 0.1% CHAPS, 0.1 mM EDTA, 0.05% BSA, 2 mM NaSO3. The pH of the buffer was adjusted to 7.4 before the addition of glycerol.
The purified protease was stored as a 10 μM stock solution in 50/50 (V/V) glycerol/water, 50 μL per vial, and held at −20° C. A positive displacement pipette was used to make the 50 μL aliquots. This stock was diluted with assay buffer to 32 nM. A 100 μL aliquot of this solution was used in the enzyme reaction. A 150 μM substrate stock solution was prepared in assay buffer and stored at 4° C. in the dark. A 20 μM dilute assay stock was prepared by dilution of the 150 μM storage stock. A 5 mg/mL avidin stock solution was made by dissolving avidin (Molecular Probes) in assay buffer and stored in the refrigerator at 4° C. Roundbottom 96-well plate microtiter plates (Black MicroFluor, Dynatec) were pre-blocked with 1.0% BSA in PBS, pH 7.4, and stored at 4° C. The plates were rinsed and dried before use.
An HCMV protease (also known as assemblin) encoded by UL80, in buffer (100 nM) was added in multiple wells to rinsed and dried, pre-blocked microtiter plate. No precautions are taken to stabilize the temperature. Substrate (5 μM final concentration) was added, mixed 5 times, and incubated at room temperature. Avidin (35 μL of 5 mg/mL) was added to one group of wells after 10 minutes, to a second group of wells after 20 minutes and to the remaining wells after thirty minutes, mixed 5 times, and the polarization of the resulting mixture was measured on the FPM2 fluorescence polarimeter. The complete hydrolysis to Ser-Ala-Leu-Arg-Lys(DTAF)-NH2 gave a Pmin value of 32.1 mP.

HCMV protease (also known as assemblin) encoded by UL80, sequence (P16753 1-256): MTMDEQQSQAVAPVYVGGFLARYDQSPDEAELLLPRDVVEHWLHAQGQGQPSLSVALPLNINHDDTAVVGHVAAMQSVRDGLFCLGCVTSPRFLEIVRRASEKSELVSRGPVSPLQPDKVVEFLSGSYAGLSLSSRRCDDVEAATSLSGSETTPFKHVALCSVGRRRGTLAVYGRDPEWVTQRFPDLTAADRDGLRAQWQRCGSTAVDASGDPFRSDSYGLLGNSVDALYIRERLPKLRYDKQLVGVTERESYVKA

Substance	Pmin value (polarization) (complete hydrolysis of the substrate to the cleaved fluorescent fragment)	ΔP = Pmax − P(t) (time 0 min)	Polarization (time 0 min)	ΔP = Pmax − P(t) (time 10 min)	Polarization (time 10 min)	ΔP = Pmax − P(t) (time 20 min)	Polarization (time 20 min)	ΔP = Pmax − P(t) (time 30 min)	Polarization (time 30 min)
Ser-Ala-Leu-Arg-Lys(DTAF)-NH2 (SALRK(DTAF)-NH2) [cleaved fluorescent fragment from complete hydrolysis of the assemblin substrate]	32.1 mP								
Biotin-γ-Abu-Gly-Val-Val-Asn-Ala-Ser-Ala-Arg-Leu-Lys(DTAF)-NH2 [Example 1]		0.0 mP	214.1 mP	47.0 mP	167.2 mP	77.2 mP	136.9 mP	99.9 mP	114.2 mP

Reference: US20010046668A1, “Fluorescence polarization method for determining protease activity” (G.D. Searle & Co., priority 1994, published 2001)
